Results on 3 molecules are retold here after paper PMC8896685 (PLoS ONE, 2022).

In data set [1] the target is T1, Human GCGR (Homo sapiens, UniProt P47871).
T1 construct: a plasmid encoding either the glucagon receptor or the GLP-1 receptor from the relevant species; expressed in transfected cells
The data set is described as follows: Receptor binding, SPA competitive binding assay. The following applies: SPA competitive binding on BHK cell membranes, [125I]-glucagon tracer, 1% species specific plasma, 2 h 30°C; value (95% CI). How it is done:
(§1) The binding assay was performed on cell membranes in the presence of 1% (v/v) species-specific heparin-treated pooled plasma (Bioreclamation IVT, Westbury, NY) diluted in assay buffer (50 mM HEPES supplemented with 5 mM EGTA, 5 mM MgCl2, and 0.005% (v/v) Tween 20, pH7.4). […] Cells stably expressing an individual receptor of interest were grown at 5% CO2, 37°C in DMEM (supplemented with 10% FCS, 0.5 mg/ml G418 and 0.3 mg/ml hygromycin). Membrane preparations were made from cells harvested at approximately 80% confluence, washed and homogenized in 20 mM HEPES with 0.1 mM EDTA, pH 7.4. Protein concentration was determined, and the membranes were stored at -80°C until use. The membrane binding assay was performed in a 96-well OptiPlate (PerkinElmer) in a total volume of 200 μl. Test compounds were dissolved in 80% DMSO and further diluted in assay buffer. 50 μl of diluted plasma was added to the assay plate wells followed by addition of test compounds (25 μl), cell membranes (50 μl, 0.06 mg/ml), SPA beads (20 mg/ml in assay buffer) and radioligand (60,000 cpm/well, corresponding to 0.06 nM; 2200 Ci/mmol. Each assay plate was incubated for 2 h at 30°C, centrifuged at 1500 rpm for 10 minutes and counted in a TopCount NXT instrument (PerkinElmer).
(§2) For the receptor binding assays, logIC50 values were calculated using non-linear regression analysis. The error estimation was reported as the 95% confidence interval. […] The calculations were performed in GraphPad Prism 6.4 (GraphPad, San Diego, CA) and error estimation was expressed as the 95% confidence interval. […] Averages, error estimation, ratios and plasma shifts were all calculated on logIC50 or logEC50 values and transformed to the anti-log values for reporting purposes.

The target in data set [2] is T2, Rat GCGR (Rattus norvegicus, UniProt P30082).
T2 construct: a plasmid encoding either the glucagon receptor or the GLP-1 receptor from the relevant species; expressed in transfected cells
T2 sequence (P30082 27-485): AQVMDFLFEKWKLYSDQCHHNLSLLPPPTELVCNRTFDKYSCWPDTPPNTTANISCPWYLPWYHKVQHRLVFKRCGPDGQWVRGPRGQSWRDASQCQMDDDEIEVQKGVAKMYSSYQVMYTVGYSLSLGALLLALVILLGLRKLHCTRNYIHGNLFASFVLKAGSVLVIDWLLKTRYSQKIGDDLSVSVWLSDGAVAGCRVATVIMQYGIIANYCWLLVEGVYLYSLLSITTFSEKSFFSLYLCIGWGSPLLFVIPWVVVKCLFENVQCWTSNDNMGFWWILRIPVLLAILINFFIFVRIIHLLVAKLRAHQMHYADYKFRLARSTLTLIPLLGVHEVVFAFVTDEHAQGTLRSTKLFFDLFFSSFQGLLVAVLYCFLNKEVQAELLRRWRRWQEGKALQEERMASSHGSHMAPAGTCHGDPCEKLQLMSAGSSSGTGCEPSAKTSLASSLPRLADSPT
Put plainly: Receptor binding, SPA competitive binding assay. Conditions: SPA competitive binding on BHK cell membranes, [125I]-glucagon tracer, 1% species specific plasma, 2 h 30°C; value (95% CI). As for the experimental part: as §1, §2

The target in data set [3] is T3, Mouse GLP-1R (Mus musculus, UniProt O35659).
T3 construct: a plasmid encoding either the glucagon receptor or the GLP-1 receptor from the relevant species; expressed in transfected cells
T3 sequence (O35659 22-463): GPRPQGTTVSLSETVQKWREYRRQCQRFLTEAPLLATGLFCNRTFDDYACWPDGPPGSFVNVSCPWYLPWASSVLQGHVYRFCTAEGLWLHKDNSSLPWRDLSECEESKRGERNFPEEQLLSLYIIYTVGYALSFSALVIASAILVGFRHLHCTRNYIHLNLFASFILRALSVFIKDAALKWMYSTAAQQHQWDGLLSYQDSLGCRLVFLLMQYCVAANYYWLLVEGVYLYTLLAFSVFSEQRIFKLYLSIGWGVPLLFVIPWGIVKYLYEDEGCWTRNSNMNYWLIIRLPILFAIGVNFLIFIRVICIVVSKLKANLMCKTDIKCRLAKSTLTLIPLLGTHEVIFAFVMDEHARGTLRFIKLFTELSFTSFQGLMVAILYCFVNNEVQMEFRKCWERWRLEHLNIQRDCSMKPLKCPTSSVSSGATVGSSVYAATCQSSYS
The data set is described as follows: Receptor binding, SPA competitive binding assay. The following applies: SPA competitive binding on BHK cell membranes, [125I]-GLP-1(7–36)-NH2 tracer, 1% species specific plasma, 2 h 30°C; value (95% CI). How it is done: as §1, §2

The target of data set [4] is T4, Rat GLP-1R (Rattus norvegicus, UniProt P32301).
T4 construct: a plasmid encoding either the glucagon receptor or the GLP-1 receptor from the relevant species; expressed in transfected cells
T4 sequence (P32301 22-463): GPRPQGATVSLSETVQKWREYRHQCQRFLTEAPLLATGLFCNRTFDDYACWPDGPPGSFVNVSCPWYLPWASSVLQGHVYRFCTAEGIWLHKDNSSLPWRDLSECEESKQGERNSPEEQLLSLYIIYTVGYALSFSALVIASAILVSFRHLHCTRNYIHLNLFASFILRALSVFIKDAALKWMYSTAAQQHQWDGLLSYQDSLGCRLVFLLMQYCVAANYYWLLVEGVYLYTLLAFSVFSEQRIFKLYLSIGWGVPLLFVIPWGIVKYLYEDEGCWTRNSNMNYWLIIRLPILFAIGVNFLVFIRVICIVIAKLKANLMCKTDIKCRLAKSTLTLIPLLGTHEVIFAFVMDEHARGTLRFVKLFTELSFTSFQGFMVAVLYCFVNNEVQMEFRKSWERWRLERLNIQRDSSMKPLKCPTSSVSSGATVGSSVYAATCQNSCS
Put plainly: Receptor binding, SPA competitive binding assay. The following applies: SPA competitive binding on BHK cell membranes, [125I]-GLP-1(7–36)-NH2 tracer, 1% species specific plasma, 2 h 30°C; value (95% CI). How it is done: as §1, §2

For data set [5], the target named is Human GLP-1R (Homo sapiens, UniProt P43220). Put plainly: Receptor binding, SPA competitive binding assay. The following applies: for IC50: SPA competitive binding on BHK cell membranes, [125I]-GLP-1(7–36)-NH2 tracer, 1% species specific plasma, 2 h 30°C, value (95% CI). How it is done:
as §1, §2

A short description of data set [6]: in vivo. The following applies: rat, iv. As for the experimental part: Compound exposure was measured by Luminescence Oxygen Channeling Immunoassay (LOCI). […] The three reactants were combined with the analyte and formed a two-sited immuno-complex. Illumination of the complex released singlet oxygen […] from the donor beads. They were channeled into the acceptor beads and triggered a chemiluminescence response which was measured in an EnVision plate reader (PerkinElmer). The amount of light was proportional to the concentration of the analyte. As calibrators, a dilution line of the relevant analyte in rat/mouse plasma was included.
At t=0, 5 min, 10 min, 30 min, 2 h, 4 h, 8 h, 12 h, 24 h, 32 h, 48 h, 56 h, and 72 h post dosing, plasma was sampled from the sublingual plexus for analysis of plasma exposure measured by LOCI.
Plasma concentration-time profiles were analysed using non-compartmental analysis (NCA) using Phoenix WinNonlin Professional 6.3 (Pharsight, Mountain View, CA, US). Calculations were performed using full concentration-time profile values or sparse sampling concentration-time values as appropriate.

As a reminder, the IC50 is the concentration needed to halve the response being measured. A high value points to weaker potency. By half-life is commonly meant how long it takes for the measured level to halve. Higher therefore signals slow decline.

Numbered stars: 1 amine (or outer) side, 2 acyl side, 3 side chain; on linkers, the order of the positions; unused ones are H or OH. Square brackets hold non-standard residues; d marks the D form. Side chains are listed from the residue outwards. Peptide text beside a SMILES is read from it. * marks the point of attachment. C18 diacid = O=C(O)CCCCCCCCCCCCCCCCC(=O)*; γGlu = O=C(O)[C@H](CCC(=O)[*:2])N[*:1]; Desaminohistidyl = O=C(CCc1c[nH]cn1)*; Ac4c = NC1(C(=O)O)CCC1; AEEA = NCCOCCOCC(=O)O; Aib = CC(C)(N)C(=O)O

T1 sequence (P47871 26-477): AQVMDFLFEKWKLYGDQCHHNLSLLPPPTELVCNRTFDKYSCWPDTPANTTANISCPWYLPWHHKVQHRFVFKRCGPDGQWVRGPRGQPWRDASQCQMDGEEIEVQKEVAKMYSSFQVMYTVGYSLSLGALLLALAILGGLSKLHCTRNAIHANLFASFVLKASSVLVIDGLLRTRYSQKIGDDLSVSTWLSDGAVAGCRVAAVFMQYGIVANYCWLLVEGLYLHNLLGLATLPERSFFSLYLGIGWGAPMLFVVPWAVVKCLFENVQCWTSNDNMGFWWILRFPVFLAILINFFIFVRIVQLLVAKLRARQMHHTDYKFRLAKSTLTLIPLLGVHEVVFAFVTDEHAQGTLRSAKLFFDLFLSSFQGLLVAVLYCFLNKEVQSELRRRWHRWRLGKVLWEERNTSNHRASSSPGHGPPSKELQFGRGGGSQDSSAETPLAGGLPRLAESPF
Sequence of Human GLP-1R (P43220 24-463): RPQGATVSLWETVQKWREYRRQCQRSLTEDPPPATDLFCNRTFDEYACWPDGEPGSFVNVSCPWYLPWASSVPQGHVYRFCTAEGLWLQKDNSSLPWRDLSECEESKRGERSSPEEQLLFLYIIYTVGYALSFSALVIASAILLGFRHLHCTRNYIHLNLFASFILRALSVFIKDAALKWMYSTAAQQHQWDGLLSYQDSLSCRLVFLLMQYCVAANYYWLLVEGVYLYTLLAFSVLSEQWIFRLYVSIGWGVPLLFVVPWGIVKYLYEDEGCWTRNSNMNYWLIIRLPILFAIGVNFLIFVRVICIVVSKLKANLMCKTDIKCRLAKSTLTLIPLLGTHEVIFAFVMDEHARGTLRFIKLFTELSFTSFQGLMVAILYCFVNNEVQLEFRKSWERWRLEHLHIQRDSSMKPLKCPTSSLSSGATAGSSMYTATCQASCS

Regarding `CC(C)C[C@H](NC(=O)[C@H](Cc1ccc(O)cc1)NC(=O)[C@H](CCCCN)NC(=O)[C@H](CO)NC(=O)[C@H](CC(C)C)NC(=O)[C@H](CC(=O)O)NC(=O)[C@H](CO)NC(=O)[C@@H](NC(=O)[C@H](Cc1ccccc1)NC(=O)[C@@H](NC(=O)CNC(=O)[C@H](CCC(N)=O)NC(=O)C(C)(C)NC(=O)[C@@H](N)Cc1c[nH]cn1)[C@@H](C)O)[C@@H](C)O)C(=O)N[C@@H](CCC(=O)O)C(=O)N[C@@H](CO)C(=O)N[C@@H](CCCCN)C(=O)N[C@@H](CCCNC(=N)N)C(=O)N[C@@H](C)C(=O)N[C@@H](CCCNC(=N)N)C(=O)N[C@@H](CCC(=O)O)C(=O)N[C@@H](Cc1ccccc1)C(=O)N[C@H](C(=O)N[C@@H](CCC(N)=O)C(=O)N[C@@H](Cc1c[nH]c2ccccc12)C(=O)N[C@@H](CC(C)C)C(=O)N[C@@H](CC(C)C)C(=O)N[C@@H](CCCCNC(=O)CC[C@H](NC(=O)CC[C@H](NC(=O)[C@H](CO)NC(=O)[C@H](CCC(=O)O)NC(=O)[C@H](CO)NC(=O)CC[C@H](NC(=O)CC[C@H](NC(=O)CCCCCCCCCCCCCCCCC(=O)O)C(=O)O)C(=O)O)C(=O)O)C(=O)O)C(=O)N[C@H](C(N)=O)[C@@H](C)O)C(C)C` [NN1177] (H-H[Aib]QGTFTSDLSKYLESKRAREFVQWLLK([γGlu-γGlu-Ser-Glu-Ser-γGlu-γGlu-C18 diacid])T-NH2), the IC50 was found to be 2.54 nM in data set [1]; 0.3 nM in data set [2]; 0.11 nM in data set [3]; 0.17 nM in data set [4]; 0.64 nM in data set [5]. The “Binding affinity to GLP-1 receptors relative to glucagon receptors” value in data set [5] (across human, mouse and rat receptor binding assays, 1% plasma) is on record as “two-to four-fold”. Also, the half-life in data set [6] was 480 min.

On to `CC[C@H](C)[C@H](NC(=O)[C@H](Cc1ccccc1)NC(=O)[C@H](CCC(=O)O)NC(=O)[C@H](CCCNC(=N)N)NC(=O)[C@H](C)NC(=O)[C@H](C)NC(=O)[C@H](CCC(N)=O)NC(=O)[C@H](CCC(=O)O)NC(=O)[C@H](CCC(=O)O)NC(=O)[C@H](CC(C)C)NC(=O)[C@H](Cc1ccc(O)cc1)NC(=O)[C@H](CCCCN)NC(=O)[C@H](CO)NC(=O)[C@@H](NC(=O)[C@H](CC(=O)O)NC(=O)[C@H](CO)NC(=O)[C@@H](NC(=O)[C@H](Cc1ccccc1)NC(=O)[C@@H](NC(=O)CNC(=O)[C@H](Cc1c[nH]cn1)NC(=O)C(C)(C)NC(=O)CCc1c[nH]cn1)[C@@H](C)O)[C@@H](C)O)C(C)C)C(=O)N[C@@H](C)C(=O)N[C@@H](Cc1c[nH]c2ccccc12)C(=O)N[C@@H](CC(C)C)C(=O)N[C@@H](CC(C)C)C(=O)N[C@@H](CCCCNC(=O)COCCOCCNC(=O)COCCOCCNC(=O)CC[C@H](NC(=O)CC[C@H](NC(=O)CCCCCCCCCCCCCCCCC(=O)O)C(=O)O)C(=O)O)C(=O)N[C@H](C(N)=O)[C@@H](C)O` [NN1359] (Desaminohistidyl-[Aib]HGTFTSDVSKYLEEQAAREFIAWLLK([AEEA-AEEA-γGlu-γGlu-C18 diacid])T-NH2), for which the IC50 in data set [1] was found to be 7.54 nM; in data set [2], 6.29 nM; in data set [3], 0.37 nM; in data set [4] it was 2.06 nM; in data set [5] it was 0.84 nM. The half-life in data set [6] was 660 min.

In the case of `CC(C)C[C@H](NC(=O)[C@H](CC(=O)O)NC(=O)[C@H](CC(C)C)NC(=O)[C@H](Cc1ccc(O)cc1)NC(=O)[C@H](CCCCN)NC(=O)[C@H](CO)NC(=O)[C@H](CC(C)C)NC(=O)[C@H](CC(=O)O)NC(=O)[C@H](CO)NC(=O)[C@@H](NC(=O)[C@H](Cc1ccccc1)NC(=O)[C@@H](NC(=O)CNC(=O)[C@H](CCC(N)=O)NC(=O)C1(NC(=O)[C@@H](N)Cc2c[nH]cn2)CCC1)[C@@H](C)O)[C@@H](C)O)C(=O)N[C@@H](CCCNC(=N)N)C(=O)N[C@@H](CCCNC(=N)N)C(=O)N[C@@H](C)C(=O)N[C@@H](CCCNC(=N)N)C(=O)N[C@@H](CC(=O)O)C(=O)N[C@@H](Cc1ccccc1)C(=O)N[C@H](C(=O)N[C@@H](CCC(N)=O)C(=O)N[C@@H](Cc1c[nH]c2ccccc12)C(=O)N[C@@H](CC(C)C)C(=O)N[C@@H](CC(C)C)C(=O)N[C@@H](CCCCNC(=O)CC[C@H](NC(=O)CC[C@H](NC(=O)COCCOCCNC(=O)COCCOCCNC(=O)CC[C@H](NC(=O)CC[C@H](NC(=O)CCCCCCCCCCCCCCCCC(=O)O)C(=O)O)C(=O)O)C(=O)O)C(=O)O)C(=O)N[C@H](C(N)=O)[C@@H](C)O)C(C)C` [NN1151] (H-H[Ac4c]QGTFTSDLSKYLDLRRARDFVQWLLK([γGlu-γGlu-AEEA-AEEA-γGlu-γGlu-C18 diacid])T-NH2), the IC50 in data set [1] came to 0.81 nM; in data set [2] it was 0.27 nM; in data set [3] it was 1.87 nM; in data set [4], 1.72 nM; in data set [5], 1.52 nM. This molecule gave a half-life in data set [6] of 240 min.
